Legend:
[1] = target: Calcium/calmodulin-dependent protein kinase type 1B (Homo sapiens) (UniProt Q6P2M8); conditions: Compound concentration 1000.0 nM
[2] = target: Muscarinic acetylcholine receptor M3 (Homo sapiens) (UniProt P20309); conditions: Compound concentration 10.0 uM
[3] = target: Mitogen-activated protein kinase kinase kinase 1 (Homo sapiens) (UniProt Q13233); conditions: Compound concentration 1000.0 nM
[4] = target: Non-receptor tyrosine-protein kinase TNK1 (Homo sapiens) (UniProt Q13470); conditions: Compound concentration 1000.0 nM
Chain of Non-receptor tyrosine-protein kinase TNK1 (Homo sapiens) (Q13470 whole entry): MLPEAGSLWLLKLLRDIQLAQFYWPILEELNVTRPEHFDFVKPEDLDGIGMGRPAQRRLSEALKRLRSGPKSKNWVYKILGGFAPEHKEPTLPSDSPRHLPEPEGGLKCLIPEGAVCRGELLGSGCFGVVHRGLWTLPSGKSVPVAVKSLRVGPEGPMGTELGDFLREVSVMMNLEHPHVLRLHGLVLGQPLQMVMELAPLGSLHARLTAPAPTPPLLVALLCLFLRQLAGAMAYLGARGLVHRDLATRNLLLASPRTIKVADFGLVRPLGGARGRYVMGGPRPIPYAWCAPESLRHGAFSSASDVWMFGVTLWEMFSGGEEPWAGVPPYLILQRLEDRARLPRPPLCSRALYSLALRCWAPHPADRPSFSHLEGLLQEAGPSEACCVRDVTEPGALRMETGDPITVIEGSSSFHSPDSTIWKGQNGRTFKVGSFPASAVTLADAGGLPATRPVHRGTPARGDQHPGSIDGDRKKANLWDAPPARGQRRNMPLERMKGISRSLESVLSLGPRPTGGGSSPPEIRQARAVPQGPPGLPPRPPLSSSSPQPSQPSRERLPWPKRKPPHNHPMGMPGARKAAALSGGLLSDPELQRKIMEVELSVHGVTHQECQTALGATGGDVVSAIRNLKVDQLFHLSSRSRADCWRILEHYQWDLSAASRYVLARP

[5] = target: Cyclin-dependent kinase 4 (Homo sapiens) (UniProt P11802); conditions: Compound concentration 1000.0 nM
Chain of Cyclin-dependent kinase 4 (Homo sapiens) (P11802 whole entry): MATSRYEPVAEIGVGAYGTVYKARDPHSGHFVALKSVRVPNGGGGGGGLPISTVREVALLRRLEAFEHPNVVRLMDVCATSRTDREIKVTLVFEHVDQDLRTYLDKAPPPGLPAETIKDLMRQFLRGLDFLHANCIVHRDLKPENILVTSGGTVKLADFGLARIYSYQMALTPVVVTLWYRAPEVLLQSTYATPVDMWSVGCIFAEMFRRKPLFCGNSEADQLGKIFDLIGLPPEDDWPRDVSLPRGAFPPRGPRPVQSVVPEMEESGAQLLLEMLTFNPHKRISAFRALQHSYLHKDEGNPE

[6] = target: T1, Dual specificity protein kinase TTK (Homo sapiens) (UniProt P33981); conditions: Compound concentration 1000.0 nM
T1 sequence (whole entry): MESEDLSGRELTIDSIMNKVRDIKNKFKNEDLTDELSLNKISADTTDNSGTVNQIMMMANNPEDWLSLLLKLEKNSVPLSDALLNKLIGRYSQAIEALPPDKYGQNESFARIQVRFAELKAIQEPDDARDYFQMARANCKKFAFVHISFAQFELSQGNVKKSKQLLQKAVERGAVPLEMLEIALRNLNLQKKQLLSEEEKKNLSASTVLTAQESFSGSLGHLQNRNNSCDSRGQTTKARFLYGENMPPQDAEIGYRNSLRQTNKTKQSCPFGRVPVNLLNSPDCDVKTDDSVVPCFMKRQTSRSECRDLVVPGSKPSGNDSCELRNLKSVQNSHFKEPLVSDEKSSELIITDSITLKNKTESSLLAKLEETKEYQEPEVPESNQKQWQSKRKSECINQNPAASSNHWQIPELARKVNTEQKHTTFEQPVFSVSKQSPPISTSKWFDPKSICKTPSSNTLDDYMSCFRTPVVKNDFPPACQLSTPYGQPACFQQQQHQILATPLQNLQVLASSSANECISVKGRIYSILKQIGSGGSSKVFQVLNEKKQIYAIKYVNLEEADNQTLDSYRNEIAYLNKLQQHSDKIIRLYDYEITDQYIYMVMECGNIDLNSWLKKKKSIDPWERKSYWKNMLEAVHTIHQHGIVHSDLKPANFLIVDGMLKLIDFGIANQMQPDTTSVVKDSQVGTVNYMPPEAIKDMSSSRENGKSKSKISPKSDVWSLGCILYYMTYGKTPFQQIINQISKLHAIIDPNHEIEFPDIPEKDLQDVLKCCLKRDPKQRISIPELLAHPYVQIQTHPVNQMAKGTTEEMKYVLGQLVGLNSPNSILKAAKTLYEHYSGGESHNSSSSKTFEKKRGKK

[7] = target: Glycogen synthase kinase-3 alpha (Homo sapiens) (UniProt P49840); conditions: Compound concentration 1000.0 nM
Chain of Glycogen synthase kinase-3 alpha (Homo sapiens) (P49840 2-483 limits assumed): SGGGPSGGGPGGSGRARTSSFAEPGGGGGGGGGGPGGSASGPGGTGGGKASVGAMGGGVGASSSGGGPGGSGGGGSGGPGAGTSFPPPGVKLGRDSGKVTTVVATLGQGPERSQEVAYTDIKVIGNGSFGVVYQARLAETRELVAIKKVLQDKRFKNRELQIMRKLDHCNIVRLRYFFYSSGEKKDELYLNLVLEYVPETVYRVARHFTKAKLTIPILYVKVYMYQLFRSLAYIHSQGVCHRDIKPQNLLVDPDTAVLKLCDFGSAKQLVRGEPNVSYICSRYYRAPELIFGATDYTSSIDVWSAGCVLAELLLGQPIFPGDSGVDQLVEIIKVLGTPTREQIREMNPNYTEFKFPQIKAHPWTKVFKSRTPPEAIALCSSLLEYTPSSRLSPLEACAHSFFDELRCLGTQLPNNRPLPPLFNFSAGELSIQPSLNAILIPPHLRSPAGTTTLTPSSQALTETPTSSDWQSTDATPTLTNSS

[8] = target: T2, SNF-related serine/threonine-protein kinase (Homo sapiens) (UniProt Q9NRH2); conditions: Compound concentration 1000.0 nM
T2 sequence (whole entry): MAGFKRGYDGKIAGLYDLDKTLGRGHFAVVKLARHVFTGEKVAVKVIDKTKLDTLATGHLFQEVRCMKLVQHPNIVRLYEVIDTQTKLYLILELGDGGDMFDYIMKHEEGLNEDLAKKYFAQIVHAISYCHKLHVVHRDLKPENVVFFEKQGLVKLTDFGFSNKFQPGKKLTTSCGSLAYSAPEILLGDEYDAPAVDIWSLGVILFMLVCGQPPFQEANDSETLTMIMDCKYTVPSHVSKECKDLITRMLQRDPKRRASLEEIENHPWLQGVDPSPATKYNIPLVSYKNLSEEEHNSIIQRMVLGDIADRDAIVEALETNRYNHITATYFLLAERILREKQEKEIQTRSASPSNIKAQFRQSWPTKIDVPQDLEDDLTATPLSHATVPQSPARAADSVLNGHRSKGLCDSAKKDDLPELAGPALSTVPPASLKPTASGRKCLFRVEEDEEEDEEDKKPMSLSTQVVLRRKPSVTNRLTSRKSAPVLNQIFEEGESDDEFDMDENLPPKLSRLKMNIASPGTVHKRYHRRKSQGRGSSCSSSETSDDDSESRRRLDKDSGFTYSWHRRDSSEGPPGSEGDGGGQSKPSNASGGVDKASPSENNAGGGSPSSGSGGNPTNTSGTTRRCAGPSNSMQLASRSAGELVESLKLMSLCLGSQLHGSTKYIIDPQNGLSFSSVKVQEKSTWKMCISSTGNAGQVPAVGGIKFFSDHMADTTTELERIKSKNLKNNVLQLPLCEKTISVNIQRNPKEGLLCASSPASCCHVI

SN12C = assay: Proliferation assay: SN12C (renal cell carcinoma); type: functional, cell-based; conditions: Homo sapiens
[9] = target: T3, Rhodopsin kinase GRK1 (Homo sapiens) (UniProt Q15835); conditions: Compound concentration 1000.0 nM
T3 sequence (whole entry): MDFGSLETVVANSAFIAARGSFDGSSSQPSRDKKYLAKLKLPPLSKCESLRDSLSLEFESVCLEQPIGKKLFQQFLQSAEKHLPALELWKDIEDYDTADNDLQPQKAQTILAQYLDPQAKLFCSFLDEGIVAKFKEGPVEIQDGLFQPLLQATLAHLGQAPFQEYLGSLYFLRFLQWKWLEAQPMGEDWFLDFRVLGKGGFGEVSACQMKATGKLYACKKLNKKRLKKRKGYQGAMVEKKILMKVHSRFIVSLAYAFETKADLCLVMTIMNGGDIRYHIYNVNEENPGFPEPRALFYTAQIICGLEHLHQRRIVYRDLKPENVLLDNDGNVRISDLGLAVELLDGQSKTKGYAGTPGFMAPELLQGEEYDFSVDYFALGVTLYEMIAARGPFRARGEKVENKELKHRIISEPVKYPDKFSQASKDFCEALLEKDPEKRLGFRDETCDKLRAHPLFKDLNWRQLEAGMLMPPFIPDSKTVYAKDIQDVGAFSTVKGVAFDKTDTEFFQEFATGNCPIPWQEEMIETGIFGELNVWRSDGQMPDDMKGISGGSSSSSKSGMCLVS

[10] = target: Serine/threonine-protein kinase MARK2 (Homo sapiens) (UniProt Q7KZI7); conditions: Compound concentration 1000.0 nM
Chain of Serine/threonine-protein kinase MARK2 (Homo sapiens) (Q7KZI7 whole entry, canonical isoform): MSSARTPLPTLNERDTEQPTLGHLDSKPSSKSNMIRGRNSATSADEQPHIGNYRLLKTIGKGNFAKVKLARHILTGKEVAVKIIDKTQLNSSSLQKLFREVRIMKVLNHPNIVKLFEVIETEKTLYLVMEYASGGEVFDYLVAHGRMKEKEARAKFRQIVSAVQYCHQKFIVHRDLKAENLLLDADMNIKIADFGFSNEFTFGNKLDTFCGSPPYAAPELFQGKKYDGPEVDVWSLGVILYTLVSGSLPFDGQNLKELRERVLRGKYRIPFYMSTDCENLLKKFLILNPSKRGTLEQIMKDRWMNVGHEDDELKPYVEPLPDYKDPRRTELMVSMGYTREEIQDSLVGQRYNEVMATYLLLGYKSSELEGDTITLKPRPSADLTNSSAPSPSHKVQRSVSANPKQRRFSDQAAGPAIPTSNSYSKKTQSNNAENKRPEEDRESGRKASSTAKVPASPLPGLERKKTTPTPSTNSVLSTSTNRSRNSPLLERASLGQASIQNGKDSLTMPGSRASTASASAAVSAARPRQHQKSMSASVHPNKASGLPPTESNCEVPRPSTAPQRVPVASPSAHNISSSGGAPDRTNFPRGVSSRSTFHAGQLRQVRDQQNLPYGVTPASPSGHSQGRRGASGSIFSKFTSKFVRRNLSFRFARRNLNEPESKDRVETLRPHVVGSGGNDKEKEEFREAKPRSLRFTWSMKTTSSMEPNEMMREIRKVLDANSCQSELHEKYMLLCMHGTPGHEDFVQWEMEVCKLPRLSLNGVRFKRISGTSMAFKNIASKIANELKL

[11] = target: Casein kinase I isoform alpha-like (Homo sapiens) (UniProt Q8N752); conditions: Compound concentration 1000.0 nM
Chain of Casein kinase I isoform alpha-like (Homo sapiens) (Q8N752 whole entry, canonical isoform): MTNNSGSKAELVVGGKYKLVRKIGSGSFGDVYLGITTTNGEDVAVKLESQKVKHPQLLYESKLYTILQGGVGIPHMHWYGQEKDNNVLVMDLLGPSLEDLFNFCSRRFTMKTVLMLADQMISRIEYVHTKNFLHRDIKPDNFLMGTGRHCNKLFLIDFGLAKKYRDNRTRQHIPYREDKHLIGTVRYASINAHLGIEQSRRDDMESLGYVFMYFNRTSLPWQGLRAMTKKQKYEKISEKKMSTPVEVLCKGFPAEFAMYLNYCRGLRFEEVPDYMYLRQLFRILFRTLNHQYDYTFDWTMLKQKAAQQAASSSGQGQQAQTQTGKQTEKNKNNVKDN

[12] = target: Mitogen-activated protein kinase kinase kinase kinase 2 (Homo sapiens) (UniProt Q12851); conditions: Compound concentration 1000.0 nM
Chain of Mitogen-activated protein kinase kinase kinase kinase 2 (Homo sapiens) (Q12851 whole entry): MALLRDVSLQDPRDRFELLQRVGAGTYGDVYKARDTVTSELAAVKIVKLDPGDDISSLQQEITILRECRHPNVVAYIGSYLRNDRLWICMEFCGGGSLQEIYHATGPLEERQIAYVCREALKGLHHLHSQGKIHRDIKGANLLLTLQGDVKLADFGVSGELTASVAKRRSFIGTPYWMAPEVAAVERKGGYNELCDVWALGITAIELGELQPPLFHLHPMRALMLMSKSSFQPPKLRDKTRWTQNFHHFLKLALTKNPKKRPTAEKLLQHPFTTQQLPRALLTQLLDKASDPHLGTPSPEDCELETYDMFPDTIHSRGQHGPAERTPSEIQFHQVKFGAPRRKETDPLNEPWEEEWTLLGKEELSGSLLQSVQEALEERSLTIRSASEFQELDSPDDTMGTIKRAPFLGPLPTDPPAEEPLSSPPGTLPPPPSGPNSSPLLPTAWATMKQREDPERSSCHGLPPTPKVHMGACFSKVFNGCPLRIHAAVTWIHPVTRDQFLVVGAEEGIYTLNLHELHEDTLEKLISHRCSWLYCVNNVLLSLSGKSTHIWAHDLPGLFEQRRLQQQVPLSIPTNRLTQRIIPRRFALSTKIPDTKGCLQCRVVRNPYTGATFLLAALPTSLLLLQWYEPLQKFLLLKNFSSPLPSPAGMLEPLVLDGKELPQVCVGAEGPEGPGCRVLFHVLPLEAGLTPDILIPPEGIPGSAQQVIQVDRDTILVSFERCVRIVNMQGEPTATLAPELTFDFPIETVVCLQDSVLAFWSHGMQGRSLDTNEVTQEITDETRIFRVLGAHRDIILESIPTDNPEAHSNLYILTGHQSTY

[13] = target: Serine/threonine-protein kinase RIO1 (Homo sapiens) (UniProt Q9BRS2); conditions: Compound concentration 1000.0 nM
Chain of Serine/threonine-protein kinase RIO1 (Homo sapiens) (Q9BRS2 whole entry): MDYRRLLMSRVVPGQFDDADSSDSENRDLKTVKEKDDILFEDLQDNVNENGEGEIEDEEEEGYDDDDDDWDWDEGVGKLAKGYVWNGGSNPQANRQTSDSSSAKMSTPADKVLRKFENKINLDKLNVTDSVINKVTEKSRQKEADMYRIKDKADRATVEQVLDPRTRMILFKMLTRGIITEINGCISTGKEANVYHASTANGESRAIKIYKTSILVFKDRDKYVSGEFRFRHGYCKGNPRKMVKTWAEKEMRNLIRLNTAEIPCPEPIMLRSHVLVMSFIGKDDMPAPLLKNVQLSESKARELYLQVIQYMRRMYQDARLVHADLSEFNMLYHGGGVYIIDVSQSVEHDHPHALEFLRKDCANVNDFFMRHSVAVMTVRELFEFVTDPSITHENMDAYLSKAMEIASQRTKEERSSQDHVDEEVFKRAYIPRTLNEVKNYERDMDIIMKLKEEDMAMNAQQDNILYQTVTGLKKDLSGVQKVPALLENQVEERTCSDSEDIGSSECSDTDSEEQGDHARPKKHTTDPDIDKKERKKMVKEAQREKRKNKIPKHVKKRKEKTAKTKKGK

Chain of Muscarinic acetylcholine receptor M3 (Homo sapiens) (P20309 whole entry, looked up): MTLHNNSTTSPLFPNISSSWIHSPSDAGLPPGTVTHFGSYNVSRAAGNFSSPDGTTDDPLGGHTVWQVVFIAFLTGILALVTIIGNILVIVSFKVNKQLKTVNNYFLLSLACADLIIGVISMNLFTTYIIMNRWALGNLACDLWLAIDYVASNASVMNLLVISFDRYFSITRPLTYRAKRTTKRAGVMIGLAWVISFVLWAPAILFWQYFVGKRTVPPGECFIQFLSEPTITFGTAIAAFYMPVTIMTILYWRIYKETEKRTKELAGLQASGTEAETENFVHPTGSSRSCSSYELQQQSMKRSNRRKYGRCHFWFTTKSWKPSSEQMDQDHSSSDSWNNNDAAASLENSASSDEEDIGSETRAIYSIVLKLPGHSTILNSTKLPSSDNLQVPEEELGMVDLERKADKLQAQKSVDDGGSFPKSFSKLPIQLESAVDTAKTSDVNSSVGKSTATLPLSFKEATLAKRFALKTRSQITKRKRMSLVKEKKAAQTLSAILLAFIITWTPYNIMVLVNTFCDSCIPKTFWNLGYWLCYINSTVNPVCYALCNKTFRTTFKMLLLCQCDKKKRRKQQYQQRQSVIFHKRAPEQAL
Chain of Calcium/calmodulin-dependent protein kinase type 1B (Homo sapiens) (Q6P2M8 whole entry): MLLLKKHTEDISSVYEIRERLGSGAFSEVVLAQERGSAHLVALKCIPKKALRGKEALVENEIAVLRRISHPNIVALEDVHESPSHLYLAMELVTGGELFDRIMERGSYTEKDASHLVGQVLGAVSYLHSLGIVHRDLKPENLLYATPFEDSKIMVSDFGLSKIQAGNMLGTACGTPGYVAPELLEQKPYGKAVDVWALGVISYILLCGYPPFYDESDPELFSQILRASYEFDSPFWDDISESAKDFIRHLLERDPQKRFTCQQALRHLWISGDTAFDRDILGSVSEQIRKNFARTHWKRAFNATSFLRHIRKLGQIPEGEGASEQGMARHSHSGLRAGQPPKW

Structure (SMILES) | residual activity [1] [%] | inhibition [2] [%] | residual activity [3] [%] | residual activity [4] [%] | residual activity [5] [%] | residual activity [6] [%] | residual activity [7] [%] | residual activity [8] [%] | IC50 (SN12C) | residual activity [9] [%] | residual activity [10] [%] | residual activity [11] [%] | residual activity [12] [%] | residual activity [13] [%]
Cc1nc(C2CCN(C(=O)c3ccc(OC(F)(F)F)cc3N)CC2)c2ncc(N3CCN(C)CC3)cc2n1 [BAY-693] | 100 | 18.6 | 82 | 100 | 99 | 100 | 85 | 78 | 29.3 µM (not active) | 100 | 100 | 100 | 80 | 100
CN1CCN(c2cnc3c(C4CCN(C(=O)c5ccc(OC(F)(F)F)cc5N)CC4)ncnc3c2)CC1 [BAY-885] | 100 | 27.1 | 100 | 100 | 98 | 100 | 100 | 87 | > 30 µM (not active) | 96 | 100 | 100 | 82 | 100

From ChEMBL document CHEMBL4507268 (2021)
